Columns and labels:
Type in all cases: in vivo
[1] = tested on: Cabbage Looper (Trichoplusia ni); assay: Bioassays on CL, 128-well diet tray assay; conditions: Trichoplusia ni; for mortality at 50 µg/cm2: 168 h, 50 μg/cm^2 on artificial diet, second instar larvae, five to seven days, read-out: CL % Control (or Mortality) rating
Procedure, shortened: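 Test molecule at 50 μg/cm^2 applied to the artificial diet surface (acetone-water) and dried; one to five second-instar T. ni larvae per well, eight wells per treatment, held at 25° C., 14:10 light-dark for five to seven days. Percent mortality averaged over wells.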

[2] = tested on: Beet Armyworm (Spodoptera exigua); assay: Bioassays on BAW, 128-well diet tray assay; conditions: Spodoptera exigua; for mortality at 50 µg/cm2: 168 h, 50 μg/cm^2 on artificial diet, second instar larvae, five to seven days, read-out: BAW % Control (or Mortality) rating
[3] = tested on: Yellow Fever Mosquito (Aedes aegypti); assay: Bioassays on Yellow Fever Mosquito larvae, 96-well plate; conditions: from 4000 ppm DMSO master plate, about 1 day-old larvae, 3 days
Protocol: Master plates containing 400 μg of a molecule dissolved in 100 μL of dimethyl sulfoxide (DMSO) (equivalent to a 4000 ppm solution) are used. A master plate of assembled molecules contains 15 μL per well. To this plate, 135 μL of a 90:10 water:acetone mixture is added to each well. A robot (Biomek® NXP Laboratory Automation Workstation) is programmed to dispense 15 μL aspirations from the master plate into an empty 96-well shallow plate (“daughter” plate). There are 6 reps (“daughter” plates) created per master. The created daughter plates are then immediately infested with YFM larvae.
The day before plates are to be treated, mosquito eggs are placed in Millipore water containing liver powder to begin hatching (4 g. into 400 mL). After the daughter plates are created using the robot, they are infested with 220 μL of the liver powder/larval mosquito mixture (about 1 day-old larvae). After plates are infested with mosquito larvae, a non-evaporative lid is used to cover the plate to reduce drying. Plates are held at room temperature for 3 days prior to grading. After 3 days, each well is observed and scored based on mortality. The results are indicated in the table entitled “Table ABC: Biological Results” (See Table Section). AGRICULTURALLY ACCEPTABLE ACID ADDITION SALTS, SALT DERIVATIVES, SOLVATES, ESTER DERIVATIVES, POLYMORPHS, ISOTOPES, AND RADIONUCLIDES

Cc1cc(/C=C/C(c2cc(Cl)c(Cl)c(Cl)c2)C(F)(F)F)ccc1C(=O)N[C@H](C)C[S+]([O-])CC(F)(F)F (stereo partly drawn) [F46, 2-Methyl-4-((E)-4,4,4-trifluoro-3-(3,4,5-trichlorophenyl)but-1-en-1-yl)-N-((2R)-1-((2,2,2-trifluoroethyl)sulfinyl)propan-2-yl)benzamide]
mortality at 50 µg/cm2 [1]: 50 to 100% | mortality at 50 µg/cm2 [2]: 50 to 100% | YFM % Control (or Mortality) rating [3]: A (80-100)

C[C@H](CS(=O)(=O)CC(F)(F)F)NC(=O)c1ccc(/C=C/C(c2cc(Cl)cc(Cl)c2)C(F)(F)F)cc1Cl (stereo partly drawn) [F95, 2-Chloro-4-((E)-3-(3,5-dichlorophenyl)-4,4,4-trifluorobut-1-en-1-yl)-N—((R)-1-((2,2,2-trifluoroethyl)sulfonyl)propan-2-yl)benzamide]
mortality at 50 µg/cm2 [1]: 50 to 100% | mortality at 50 µg/cm2 [2]: 50 to 100% | YFM % Control (or Mortality) rating [3]: A (80-100)

CCSC(CNC(=O)c1ccc(/C=C/C(c2cc(Cl)c(Cl)c(Cl)c2)C(F)(F)F)cc1C(F)(F)F)SCC (stereo not drawn) [F113, (E)-N-(2,2-Bis(ethylthio)ethyl)-4-(4,4,4-trifluoro-3-(3,4,5-trichlorophenyl)but-1-en-1-yl)-2-(trifluoromethyl)benzamide]
mortality at 50 µg/cm2 [1]: 50 to 100% | mortality at 50 µg/cm2 [2]: 50 to 100% | YFM % Control (or Mortality) rating [3]: A (80-100)

C[C@H](CS(=O)(=O)CC(F)(F)F)NC(=O)c1ccc(/C=C/C(c2cc(Cl)c(Cl)c(Cl)c2)C(F)(F)F)cc1C(F)(F)F (stereo partly drawn) [F24, 4-((E)-4,4,4-Trifluoro-3-(3,4,5-trichlorophenyl)but-1-en-1-yl)-N—((R)-1-((2,2,2-trifluoroethyl)sulfonyl)propan-2-yl)-2-(trifluoromethyl)benzamide]
mortality at 50 µg/cm2 [1]: 50 to 100% | mortality at 0.05 µg/cm2 ([1]; 0.05 μg/cm^2, read-out: CL Percent control (or mortality)): 100% | mortality at 0.5 µg/cm2 ([1]; 0.5 μg/cm^2, read-out: CL Percent control (or mortality)): 100% | mortality at 5 µg/cm2 ([1]; 5 μg/cm^2, read-out: CL Percent control (or mortality)): 100% | mortality at 50 µg/cm2 [2]: 50 to 100% | mortality at 0.05 µg/cm2 ([2]; 0.05 μg/cm^2, read-out: BAW Percent control (or mortality)): 100% | mortality at 0.5 µg/cm2 ([2]; 0.5 μg/cm^2, read-out: BAW Percent control (or mortality)): 100% | mortality at 5 µg/cm2 ([2]; 5 μg/cm^2, read-out: BAW Percent control (or mortality)): 100% | YFM % Control (or Mortality) rating [3]: A (80-100)

C[C@H](CSCC(F)(F)F)NC(=O)c1ccc(/C=C/C(c2cc(Cl)c(C#N)c(Cl)c2)C(F)(F)F)cc1C(F)(F)F (stereo partly drawn) [F109, 4-((E)-3-(3,5-Dichloro-4-cyanophenyl)-4,4,4-trifluorobut-1-en-1-yl)-N—((R)-1-((2,2,2-trifluoroethyl)thio)propan-2-yl)-2-(trifluoromethyl)benzamide]
mortality at 50 µg/cm2 [1]: 50 to 100% | mortality at 50 µg/cm2 [2]: 50 to 100% | YFM % Control (or Mortality) rating [3]: A (80-100)

O=C(NCCSCC(F)(F)F)c1ccc(/C=C/C(c2cc(Cl)c(Cl)c(Cl)c2)C(F)(F)F)cc1Br (stereo not drawn) [F1, (E)-2-bromo-4-(4,4,4-trifluoro-3-(3,4,5-trichlorophenyl)but-1-en-1-yl)-N-(2-((2,2,2-trifluoroethyl)thio)ethyl)benzamide]
mortality at 50 µg/cm2 [1]: 50 to 100% | mortality at 50 µg/cm2 [2]: 50 to 100% | YFM % Control (or Mortality) rating [3]: A (80-100)

C[C@H](CSCC(F)(F)F)NC(=O)c1ccc(/C=C/C(c2cc(Cl)cc(Cl)c2)C(F)(F)F)cc1Cl (stereo partly drawn) [F104, 2-Chloro-4-((E)-3-(3,5-dichlorophenyl)-4,4,4-trifluorobut-1-en-1-yl)-N—((R)-1-((2,2,2-trifluoroethyl)thio)propan-2-yl)benzamide]
mortality at 50 µg/cm2 [1]: 50 to 100% | mortality at 50 µg/cm2 [2]: 50 to 100% | YFM % Control (or Mortality) rating [3]: A (80-100)

O=C(NC1(C[S+]([O-])CC(F)(F)F)CC1)c1ccc(/C=C/C(c2cc(Cl)c(Cl)c(Cl)c2)C(F)(F)F)cc1C(F)(F)F (stereo not drawn) [F63, (E)-4-(4,4,4-Trifluoro-3-(3,4,5-trichlorophenyl)but-1-en-1-yl)-N-(1-(((2,2,2-trifluoroethyl)sulfinyl)methyl)cyclopropyl)-2-(trifluoromethyl)benzamide]
mortality at 50 µg/cm2 [1]: 50 to 100% | mortality at 50 µg/cm2 [2]: 50 to 100% | YFM % Control (or Mortality) rating [3]: A (80-100)

C[C@H](CS(=O)(=O)CC(F)(F)F)NC(=O)c1ccc(/C=C/C(c2cc(Cl)cc(Cl)c2)C(C)(F)F)cc1Cl (stereo partly drawn) [F132, 2-Chloro-4-((E)-3-(3,5-dichlorophenyl)-4,4-difluoropent-1-en-1-yl)-N—((R)-1-((2,2,2-trifluoroethyl)sulfonyl)propan-2-yl)benzamide]
mortality at 50 µg/cm2 [1]: 50 to 100% | mortality at 50 µg/cm2 [2]: 50 to 100% | YFM % Control (or Mortality) rating [3]: B (More than 0-Less than 80)

C[C@H](C[S+]([O-])CC(F)(F)F)NC(=O)c1ccc(/C=C/C(c2cc(Cl)c(C#N)c(Cl)c2)C(F)(F)F)cc1C(F)(F)F (stereo partly drawn) [F53, 4-((E)-3-(3,5-Dichloro-4-cyanophenyl)-4,4,4-trifluorobut-1-en-1-yl)-N-((2R)-1-((2,2,2-trifluoroethyl)sulfinyl)propan-2-yl)-2-(trifluoromethyl)benzamide]
mortality at 50 µg/cm2 [1]: 50 to 100% | mortality at 50 µg/cm2 [2]: 50 to 100% | YFM % Control (or Mortality) rating [3]: A (80-100)

CCc1cc(/C=C/C(c2cc(Cl)c(Cl)c(Cl)c2)C(F)(F)F)ccc1C(=O)N[C@H](C)CSCC(F)(F)F (stereo partly drawn) [F54, 2-Ethyl-4-((E)-4,4,4-trifluoro-3-(3,4,5-trichlorophenyl)but-1-en-1-yl)-N—((R)-1-((2,2,2-trifluoroethyl)thio)propan-2-yl)benzamide]
mortality at 50 µg/cm2 [1]: 50 to 100% | mortality at 50 µg/cm2 [2]: 50 to 100% | YFM % Control (or Mortality) rating [3]: A (80-100)

C[C@H](CS(=O)(=O)CC(F)(F)F)NC(=O)c1ccc(/C=C/C(c2cc(Cl)c(Cl)c(Cl)c2)C(F)F)cc1C(F)(F)F (stereo partly drawn) [F118, 4-((E)-4,4-Difluoro-3-(3,4,5-trichlorophenyl)but-1-en-1-yl)-N—((R)-1-((2,2,2-trifluoroethyl)sulfonyl)propan-2-yl)-2-(trifluoromethyl)benzamide]
mortality at 50 µg/cm2 [1]: 50 to 100% | mortality at 50 µg/cm2 [2]: 50 to 100% | YFM % Control (or Mortality) rating [3]: A (80-100)

C[C@H](CS(=O)(=O)CC(F)(F)F)NC(=O)c1ccc(/C=C/C(c2cc(Cl)c(F)c(Cl)c2)C(F)(F)F)cc1C(F)(F)F (stereo partly drawn) [F36, 4-((E)-3-(3,5-Dichloro-4-fluorophenyl)-4,4,4-trifluorobut-1-en-1-yl)-N—((R)-1-((2,2,2-trifluoroethyl)sulfonyl)propan-2-yl)-2-(trifluoromethyl)benzamide]
mortality at 50 µg/cm2 [1]: 50 to 100% | mortality at 50 µg/cm2 [2]: 50 to 100% | YFM % Control (or Mortality) rating [3]: A (80-100)

Cc1cc(/C=C/C(c2cc(Br)cc(Br)c2)C(F)(F)F)ccc1C(=O)N[C@H](C)CSCC(F)(F)F (stereo partly drawn) [F57, 4-((E)-3-(3,5-Dibromophenyl)-4,4,4-trifluorobut-1-en-1-yl)-2-methyl-N—((R)-1-((2,2,2-trifluoroethyl)thio)propan-2-yl)benzamide]
mortality at 50 µg/cm2 [1]: 50 to 100% | mortality at 50 µg/cm2 [2]: 50 to 100% | YFM % Control (or Mortality) rating [3]: A (80-100)

C[C@H](CS(=O)(=O)CC(F)(F)F)NC(=O)c1ccc(/C=C/C(c2cc(Cl)cc(Cl)c2)C(C)(F)F)cc1C(F)(F)F (stereo partly drawn) [F134, 4-((E)-3-(3,5-Dichlorophenyl)-4,4-difluoropent-1-en-1-yl)-N—((R)-1-((2,2,2-trifluoroethyl)sulfonyl)propan-2-yl)-2-(trifluoromethyl)benzamide]
mortality at 50 µg/cm2 [1]: 50 to 100% | mortality at 50 µg/cm2 [2]: 50 to 100% | YFM % Control (or Mortality) rating [3]: A (80-100)

C=CCSC[C@@H](C)NC(=O)c1ccc(/C=C/C(c2cc(Cl)c(Cl)c(Cl)c2)C(F)(F)F)cc1C(F)(F)F (stereo partly drawn) [F101, N—((R)-1-(Allylthio)propan-2-yl)-4-((E)-4,4,4-trifluoro-3-(3,4,5-trichlorophenyl)but-1-en-1-yl)-2-(trifluoromethyl)benzamide]
mortality at 50 µg/cm2 [1]: 50 to 100% | mortality at 50 µg/cm2 [2]: 50 to 100% | YFM % Control (or Mortality) rating [3]: A (80-100)

C[C@H](C[S+]([O-])CC(F)(F)F)NC(=O)c1ccc(/C=C/C(c2cc(Cl)c(Cl)c(Cl)c2)C(F)(F)F)cc1Br (stereo partly drawn) [F39, 2-Bromo-4-((E)-4,4,4-trifluoro-3-(3,4,5-trichlorophenyl)but-1-en-1-yl)-N-((2R)-1-((2,2,2-trifluoroethyl)sulfinyl)propan-2-yl)benzamide]
mortality at 50 µg/cm2 [1]: 50 to 100% | mortality at 50 µg/cm2 [2]: 50 to 100% | YFM % Control (or Mortality) rating [3]: A (80-100)

C[C@H](C[S+]([O-])CC(F)(F)F)NC(=O)c1ccc(/C=C/C(c2cc(Br)c(Cl)c(Br)c2)C(F)(F)F)cc1C(F)(F)F (stereo partly drawn) [F42, 4-((E)-3-(3,5-Dibromo-4-chlorophenyl)-4,4,4-trifluorobut-1-en-1-yl)-N-((2R)-1-((2,2,2-trifluoroethyl)sulfinyl)propan-2-yl)-2-(trifluoromethyl)benzamide]
mortality at 50 µg/cm2 [1]: 50 to 100% | mortality at 50 µg/cm2 [2]: 50 to 100% | YFM % Control (or Mortality) rating [3]: A (80-100)
